Reference: US9499548B2, “Inhibitors of bruton's tyrosine kinase” (Hoffmann-La Roche Inc., priority 2012, dated 2016)

Test system: B cell receptor-mediated activation of B cells in human blood (CD69 expression)
Assay: Inhibition of B cell activation in whole blood measured by CD69 expression
Assay type: cell-based
Settings: anti-IgM stimulation, 20 hours, concentration decreasing by 50% the CD69-positive cells that are also CD20-positive
Method: Inhibition of B Cell Activation in Whole Blood Measured by CD69 Expression
A procedure to test the ability of Btk inhibitors to suppress B cell receptor-mediated activation of B cells in human blood is as follows:
Human whole blood (HWB) is obtained from healthy volunteers, with the following restrictions: 24 hr drug-free, non-smokers. Blood is collected by venipuncture into Vacutainer tubes anticoagulated with sodium heparin. Test compounds are diluted to ten times the desired starting drug concentration in PBS (20×), followed by three-fold serial dilutions in 10% DMSO in PBS to produce a nine point dose-response curve. 5.5 μl of each compound dilution is added in duplicate to a 2 ml 96-well V bottom plate (Analytical Sales and Services, #59623-23); 5.5 μl of 10% DMSO in PBS is added to control and no-stimulus wells. HWB (100 μl) is added to each well, and after mixing the plates are incubated at 37 C, 5% CO2, 100% humidity for 30 minutes. Goat F(ab′)2 anti-human IgM (Southern Biotech, #2022-14) (10 μl of a 500 μg/ml solution, 50 μg/ml final concentration) is added to each well (except the no-stimulus wells) with mixing and the plates are incubated for an additional 20 hours.
At the end of the 20 hour incubation, samples are incubated with florescent-probe-labeled antibodies (15 μl PE Mouse anti-Human CD20, BD Pharmingen, #555623, and/or 20 ul APC Mouse anti-Human CD69, BD Pharmingen #555533) for 30 minutes, at 37 C, 5% CO2, 100% humidity. Included are induced control, unstained and single stains for compensation adjustments and initial voltage settings. Samples are then lysed with 1 ml of 1× Pharmingen Lyse Buffer (BD Pharmingen #555899), and plates are centrifuged at 1800 rpm for 5 minutes. Supernatants are removed via suction and the remaining pellets are lysed again with another 1 ml of 1× Pharmingen Lyse Buffer, and plates are spun down as before. Supernatants are aspirated and remaining pellets are washed in FACs buffer (PBS+1% FBS). After a final spin, the supernatants are removed and pellets are resuspended in 180 μl of FACs buffer. Samples are transferred to a 96 well plate suitable to be run on the HTS 96 well system on the BD LSR II flow cytometer.
Using appropriate excitation and emission wavelengths for the fluorophores used, data are acquired and percent positive cell values are obtained using Cell Quest Software. Results are initially analyzed by FACS analysis software (Flow Jo). […] The IC50 values are calculated using XLfit software version 3, equation 201.
Representative compound data for this assay are listed below in Table II.

Row | SMILES | IC50
1 | Cn1nc(-c2cccc(-n3ncc4cc(C(C)(C)C)ccc4c3=O)c2CO)cc(Nc2ccc(OC(C)(C)CN3CCC3)cn2)c1=O [Compound I-1, 2-(3-{5-[5-(2-Azetidin-1-yl-1,1-dimethyl-ethoxy)-pyridin-2-ylamino]-1-methyl-6-oxo-1,6-dihydro-pyridazin-3-yl}-2-hydroxymethyl-phenyl)-6-tert-butyl-2H-phthalazin-1-one] | 6 nM
2 | CN1CCC(c2ccc(Nc3cc(-c4cccc(-n5ncc6cc(C(C)(C)C)ccc6c5=O)c4CO)nn(C)c3=O)nc2)CC1 [Compound I-2, 6-tert-Butyl-2-{2-hydroxymethyl-3-[1-methyl-5-(1′-methyl-1′,2′,3′,4′,5′,6′-hexahydro-[3,4′]bipyridinyl-6-ylamino)-6-oxo-1,6-dihydro-pyridazin-3-yl]-phenyl}-2H-phthalazin-1-one] | 10 nM
3 | Cn1nc(Nc2cc(-c3cccc(-n4ncc5cc(C(C)(C)C)ccc5c4=O)c3CO)nn(C)c2=O)cc1CN1CCC1 [Compound I-3, 2-{3-[5-(5-Azetidin-1-ylmethyl-1-methyl-1H-pyrazol-3-ylamino)-1-methyl-6-oxo-1,6-dihydro-pyridazin-3-yl]-2-hydroxymethyl-phenyl}-6-tert-butyl-2H-phthalazin-1-one] | 30 nM
4 | CN1CCC[C@H]1c1ccc(Nc2cc(-c3cccc(-n4ncc5cc(C(C)(C)C)ccc5c4=O)c3CO)nn(C)c2=O)nc1 [Compound I-4, 6-tert-Butyl-2-(2-hydroxymethyl-3-{1-methyl-5-[5-((S)-1-methyl-pyrrolidin-2-yl)-pyridin-2-ylamino]-6-oxo-1,6-dihydro-pyridazin-3-yl}-phenyl)-2H-phthalazin-1-one] | 32 nM
5 | CN1CC[C@@H](c2ccc(Nc3cc(-c4cccc(-n5ncc6cc(C(C)(C)C)ccc6c5=O)c4CO)nn(C)c3=O)nc2)C1 [Compound I-5, 6-tert-Butyl-2-(2-hydroxymethyl-3-{1-methyl-5-[5-((S)-1-methyl-pyrrolidin-3-yl)-pyridin-2-ylamino]-6-oxo-1,6-dihydro-pyridazin-3-yl}-phenyl)-2H-phthalazin-1-one] | 35 nM
6 | CN1CC[C@H](c2ccc(Nc3cc(-c4cccc(-n5ncc6cc(C(C)(C)C)ccc6c5=O)c4CO)nn(C)c3=O)nc2)C1 [Compound I-6, 6-tert-Butyl-2-(2-hydroxymethyl-3-{1-methyl-5-[5-((R)-1-methyl-pyrrolidin-3-yl)-pyridin-2-ylamino]-6-oxo-1,6-dihydro-pyridazin-3-yl}-phenyl)-2H-phthalazin-1-one] | 36 nM
7 | CN1CCC(c2ccc(Nc3cc(-c4cccc(-n5ncc6cc(C(C)(C)C#N)ccc6c5=O)c4CO)nn(C)c3=O)nc2)CC1 [Compound I-7, 2-(2-{2-Hydroxymethyl-3-[1-methyl-5-(1′-methyl-1′,2′,3′,4′,5′,6′-hexahydro-[3,4′]bipyridinyl-6-ylamino)-6-oxo-1,6-dihydro-pyridazin-3-yl]-phenyl}-1-oxo-1,2-dihydro-phthalazin-6-yl)-2-methyl-propionitrile] | 38 nM
8 | CN1CCn2nc(Nc3cc(-c4cccc(-n5ncc6cc(C(C)(C)C)ccc6c5=O)c4CO)nn(C)c3=O)cc2C1 [Compound I-8, 6-tert-Butyl-2-{2-hydroxymethyl-3-[1-methyl-5-(5-methyl-4,5,6,7-tetrahydro-pyrazolo[1,5-a]pyrazin-2-ylamino)-6-oxo-1,6-dihydro-pyridazin-3-yl]-phenyl}-2H-phthalazin-1-one] | 42 nM
9 | CCN1CCC(c2ccc(Nc3cc(-c4cccc(-n5ncc6cc(C(C)(C)C)ccc6c5=O)c4CO)nn(C)c3=O)nc2)CC1 [Compound I-9, 6-tert-Butyl-2-{3-[5-(1′-ethyl-1′,2′,3′,4′,5′,6′-hexahydro-[3,4′]bipyridinyl-6-ylamino)-1-methyl-6-oxo-1,6-dihydro-pyridazin-3-yl]-2-hydroxymethyl-phenyl}-2H-phthalazin-1-one] | 45 nM
10 | Cn1nc(-c2cccc(-n3ncc4cc(C(C)(C)C)ccc4c3=O)c2CO)cc(Nc2ccc(C(=O)N3CCOCC3)cn2)c1=O [Compound I-10, 6-tert-Butyl-2-(2-hydroxymethyl-3-{1-methyl-5-[5-(morpholine-4-carbonyl)-pyridin-2-ylamino]-6-oxo-1,6-dihydro-pyridazin-3-yl}-phenyl)-2H-phthalazin-1-one] | 47 nM
11 | Cn1nc(-c2cccc(-n3ncc4cc(C(C)(C)C#N)ccc4c3=O)c2CO)cc(Nc2ccc(OC(C)(C)CN3CCC3)cn2)c1=O [Compound I-11, 2-[2-(3-{5-[5-(2-Azetidin-1-yl-1,1-dimethyl-ethoxy)-pyridin-2-ylamino]-1-methyl-6-oxo-1,6-dihydro-pyridazin-3-yl}-2-hydroxymethyl-phenyl)-1-oxo-1,2-dihydro-phthalazin-6-yl]-2-methyl-propionitrile] | 135 nM
12 | Cn1nc(-c2cccc(-n3ncc4cc(C(C)(C)C)ccc4c3=O)c2CO)cc(Nc2ccc(OC(C)(C)CNCCCO)cn2)c1=O [Compound I-12, 6-tert-Butyl-2-[2-hydroxymethyl-3-(5-{5-[2-(3-hydroxy-propylamino)-1,1-dimethyl-ethoxy]-pyridin-2-ylamino}-1-methyl-6-oxo-1,6-dihydro-pyridazin-3-yl)-phenyl]-2H-phthalazin-1-one] | 187 nM
13 | Cn1nc(-c2cccc(-n3ncc4cc(C(C)(C)C)ccc4c3=O)c2CO)cc(Nc2ccc(C3CCN(C4COC4)CC3)cn2)c1=O [Compound I-13, 6-tert-Butyl-2-{2-hydroxymethyl-3-[1-methyl-5-(1′-oxetan-3-yl-1′,2′,3′,4′,5′,6′-hexahydro-[3,4′]bipyridinyl-6-ylamino)-6-oxo-1,6-dihydro-pyridazin-3-yl]-phenyl}-2H-phthalazin-1-one] | 188 nM
14 | Cn1nc(-c2cccc(-n3ncc4cc(C(C)(C)C)ccc4c3=O)c2CO)cc(Nc2ccc(OC(C)(C)CN3CC(F)(F)C3)cn2)c1=O [Compound I-14, 6-tert-Butyl-2-[3-(5-{5-[2-(3,3-difluoro-azetidin-1-yl)-1,1-dimethyl-ethoxy]-pyridin-2-ylamino}-1-methyl-6-oxo-1,6-dihydro-pyridazin-3-yl)-2-hydroxymethyl-phenyl]-2H-phthalazin-1-one] | 573 nM
15 | CN1CCC(c2ccc(Nc3cc(-c4cccc(N5CCc6cc(C(C)(C)C#N)ccc6C5=O)c4CO)nn(C)c3=O)nc2)CC1 [Compound I-15, 2-(2-{2-Hydroxymethyl-3-[1-methyl-5-(1′-methyl-1′,2′,3′,4′,5′,6′-hexahydro-[3,4′]bipyridinyl-6-ylamino)-6-oxo-1,6-dihydro-pyridazin-3-yl]-phenyl}-1-oxo-1,2,3,4-tetrahydro-isoquinolin-6-yl)-2-methyl-propionitrile] | 198 nM
